In patent US6361780B1, “Microporous drug delivery system” (Cardiac Pacemakers, Inc., priority 1998, dated 2002):

Experiment: In vitro elution testing of drug-loaded collars (light absorption of solution at 242 nm)
Format: physicochemical
Conditions: dried collar loaded from aqueous solution, then immersed in water
Experimental: FIG. 3 is a graph of radiation absorption (at 242 nm) versus time to measure the elution of dexamethasone acetate.
* denotes the use of an approximation during the calculation of values. […] The soaked collars were then dried for three hours and the delivered for elution testing. Elution testing was done by in vitro testing of the light absorption of a solution into which the collars were placed. The absorption at 242 nm was measured (a wavelength at which dexamethasone acetate strongly absorbs) and the release of the drug noted by increasing levels of absorbance, as shown in FIG. 3. […] Pore size would be estimated by taking the largest linear dimensions within each of the open areas and using that linear value as the largest dimension for that pore.
The rate of release from the collars is intended to be highly tailored to the specific ultimate use intended for the catheter or lead. The leads which may be used include traditional leads such as cardiac leads, but may also include other leads such as leads to organs that produce enzymes and hormones (as in the electrically stimulated treatment for Parkinsonism to accelerate the natural production of L-dopa), in stimulating breathing (in the prevention of SIDS or control of sleep apnea), neurological leads, hearing related leads, tinitus suppression leads, and the like. […]

removal of drug from the pores on immersion: removed from the pores over time
SMILES: CC(=O)OCC(=O)[C@@]1(O)[C@H](C)C[C@H]2[C@@H]3CCC4=CC(=O)C=C[C@]4(C)[C@@]3(F)[C@@H](O)C[C@@]21C [dextramethasone acetate, dexamethasone acetate]
